25 compounds from patent US20090093469A1, “Phenylaminopropanol Derivatives and Methods of Their Use” (WYETH, priority 2004, published 2009) can be followed below.

Structures can show the parent of a compound that is named as a salt.

The target of one experiment is T1, hNET (Homo sapiens, UniProt P23975).
T1 construct: expressed in transfected cells
T1 sequence (P23975 whole entry): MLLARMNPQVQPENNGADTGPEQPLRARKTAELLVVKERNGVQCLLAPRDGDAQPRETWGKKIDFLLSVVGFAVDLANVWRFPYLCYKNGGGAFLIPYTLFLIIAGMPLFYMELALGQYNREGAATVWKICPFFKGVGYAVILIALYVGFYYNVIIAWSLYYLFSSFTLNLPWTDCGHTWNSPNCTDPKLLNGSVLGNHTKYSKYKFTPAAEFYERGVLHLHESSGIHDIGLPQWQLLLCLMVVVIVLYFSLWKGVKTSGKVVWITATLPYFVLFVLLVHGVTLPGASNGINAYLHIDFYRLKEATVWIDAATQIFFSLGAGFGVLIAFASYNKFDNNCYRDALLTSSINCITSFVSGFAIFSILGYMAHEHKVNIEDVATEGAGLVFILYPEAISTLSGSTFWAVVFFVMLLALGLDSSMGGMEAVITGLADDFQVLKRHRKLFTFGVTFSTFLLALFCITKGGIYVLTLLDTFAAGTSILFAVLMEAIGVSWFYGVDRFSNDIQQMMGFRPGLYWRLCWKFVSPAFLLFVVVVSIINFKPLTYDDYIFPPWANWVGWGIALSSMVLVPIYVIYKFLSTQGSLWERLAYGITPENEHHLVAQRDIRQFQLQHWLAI
Description: Norepinephrine (NE) uptake assay in MDCK-Net6 cells stably transfected with human hNET. It is filed as cell-based. The note with it: MDCK-Net6, read-out: % Inhibition @ 1 μM (hNET).
The inhibition is the relative decrease from the control value, in per cent. In the case of `Cc1cn([C@@H](c2ccccc2)[C@H](O)CN)c2ccccc12` [Example 178, (1S,2R)-3-amino-1-(3-methyl-1H-indol-1-yl)-1-phenylpropan-2-ol hydrochloride], the inhibition at 1 µM was determined as 69.2%.
The same measure, in the same setting: in the case of `CNC[C@@H](O)[C@H](c1cccc(F)c1)n1ccc2cccc(F)c21` [Example 183, (1S,2R)-1-(7-fluoro-1H-indol-1-yl)-1-(3-fluorophenyl)-3-(methylamino)propan-2-ol hydrochloride] it was 100%.
Still for that read-out and setting: the same measure for `CNC[C@@H](O)[C@H](c1cccc(F)c1)n1ccc2c(F)cccc21` [Example 184, (1S,2R)-1-(4-fluoro-1H-indol-1-yl)-1-(3-fluorophenyl)-3-(methylamino)propan-2-ol hydrochloride]: 99.7%.
Take `CNC[C@@H](O)[C@H](c1ccccc1)n1c(=O)n(C(C)(C)C)c2ccccc21` [Example 192, 1-tert-Butyl-3-(2-hydroxy-3-methylamino-1-phenyl-propyl)-1,3-dihydro-benzoimidazol-2-one hydrochloride]: the inhibition at 1 µM amounted to 54.6%.
The same measure, in the same setting: the same measure for `CCCn1c(=O)n([C@@H](c2ccccc2)[C@H](O)CNC)c2ccccc21` [Example 193, 1-[(1S,2R)-2-hydroxy-3-(methylamino)-1-phenylpropyl]-3-propyl-1,3-dihydro-2H-benzimidazol-2-one hydrochloride]: 98.4%.
Turning to `CNC[C@@H](O)[C@H](c1ccccc1)n1c(=O)n(C2CCC2)c2ccccc21` [Example 197, 1-cyclobutyl-3-[(1S,2R)-2-hydroxy-3-(methylamino)-1-phenylpropyl]-1,3-dihydro-2H-benzimidazol-2-one hydrochloride], the inhibition at 1 µM turned out to be 97%.
On the same count and under the same terms, in the case of `CCCn1c(=O)n([C@@H](c2ccccc2)[C@H](O)CNC)c2cc(F)ccc21` [Example 198, 5-fluoro-3-[(1S,2R)-2-hydroxy-3-(methylamino)-1-phenylpropyl]-1-propyl-1,3-dihydro-2H-benzimidazol-2-one hydrochloride] it was 97.7%.

The experiment is the same for the next values; noted with them: test compound 1 μM; [3H]NE uptake, MDCK-Net6 cells; read-out: % Inhibition @ 1 μM (hNET).
With `CNC[C@@H](O)[C@H](c1cccc(F)c1)n1cc(-c2ccc(C(F)(F)F)cc2)c2ccccc21` [Example 173, (1S,2R)-1-(3-fluorophenyl)-3-(methylamino)-1-{3-[4-(trifluoromethyl)phenyl]-1H-indol-1-yl}propan-2-ol hydrochloride], the inhibition at 1 µM is 67.5%.
Turning to `CNC[C@@H](O)[C@H](c1cc(F)cc(F)c1)N1CCc2ccc(F)cc21` [Example 174, (1S,2R)-1-(3,5-difluorophenyl)-1-(6-fluoro-2,3-dihydro-1H-indol-1-yl)-3-(methylamino)propan-2-ol hydrochloride], the inhibition at 1 µM worked out at 99.1%.
`CNC[C@@H](O)[C@H](c1cccc(F)c1)n1cc(-c2ccccc2C(F)(F)F)c2ccccc21` [Example 175, (1S,2R)-1-(3-fluorophenyl)-3-(methylamino)-1-{3-[2-(trifluoromethyl)phenyl]-1H-indol-1-yl}propan-2-ol hydrochloride]: the inhibition at 1 µM was 99.6%.
Regarding `CNC[C@@H](O)[C@H](c1cccc(F)c1)n1cc(-c2ccccc2OC)c2ccccc21` [Example 176, (1S,2R)-1-(3-fluorophenyl)-1-[3-(2-methoxyphenyl)-1H-indol-1-yl]-3-(methylamino)propan-2-ol hydrochloride], the inhibition at 1 µM is 100%.
On the same count and under the same terms, the same measure for `CNC[C@@H](O)[C@H](c1cccc(F)c1)n1cc(-c2cccc(C(F)(F)F)c2)c2ccccc21` [Example 177, (1S,2R)-1-(3-fluorophenyl)-3-(methylamino)-1-{3-[3-(trifluoromethyl)phenyl]-1H-indol-1-yl}propan-2-ol hydrochloride]: 29.9%; for `CNC[C@@H](O)[C@H](c1ccccc1)n1cc(C)c2cccc(F)c21` [Example 179, (1S,2R)-1-(7-fluoro-3-methyl-1H-indol-1-yl)-3-(methylamino)-1-phenylpropan-2-ol hydrochloride]: 99.8%.
For `Cc1cn([C@@H](c2ccccc2)[C@H](O)CN)c2c(F)cccc12` [Example 180, (1S,2R)-3-amino-1-(7-fluoro-3-methyl-1H-indol-1-yl)-1-phenylpropan-2-ol hydrochloride], the inhibition at 1 µM turned out to be 70.4%.
The same measure, in the same setting: in the case of `CNC[C@@H](O)[C@H](c1ccccc1)n1ccc2cccc(F)c21` [Example 181, (1S,2R)-1-(7-fluoro-1H-indol-1-yl)-3-(methylamino)-1-phenylpropan-2-ol hydrochloride] it was 96.9%; in that of `CNC[C@@H](O)[C@H](c1ccccc1)n1ccc2c(F)cccc21` [Example 182, (1S,2R)-1-(4-fluoro-1H-indol-1-yl)-3-(methylamino)-1-phenylpropan-2-ol hydrochloride], 97.1%.
The same measure, in the same setting: the same measure for `CNC[C@@H](O)[C@H](c1cccc(F)c1)n1ccc2cc(C(F)(F)F)ccc21` [Example 185, (1S,2R)-1-(3-fluorophenyl)-3-(methylamino)-1-[5-(trifluoromethyl)-1H-indol-1-yl]propan-2-ol hydrochloride]: 80.8%; for `CNC[C@@H](O)[C@H](c1ccccc1)n1ccc2ccc(F)cc21` [Example 186, (1S,2R)-1-(6-fluoro-1H-indol-1-yl)-3-(methylamino)-1-phenylpropan-2-ol hydrochloride]: 96.6%.
Consider `CNC[C@@H](O)[C@H](c1ccccc1)n1ccc2cc(C(F)(F)F)ccc21` [Example 188, (1S,2R)-3-(methylamino)-1-phenyl-1-[5-(trifluoromethyl)-1H-indol-1-yl]propan-2-ol hydrochloride], for which the inhibition at 1 µM came to 71.6%.
On the same count and under the same terms, in the case of `CNC[C@@H](O)[C@H](c1cccc(F)c1)n1cc(C(C)(C)C)c2ccccc21` [Example 189, (1S,2R)-1-(3-tert-butyl-1H-indol-1-yl)-1-(3-fluorophenyl)-3-(methylamino)propan-2-ol] it was 99.3%; in that of `CNC[C@@](C)(O)[C@H](c1ccccc1)n1ccc2ccccc21` [Example 190, (1S,2R)-1-(1H-indol-1-yl)-2-methyl-3-(methylamino)-1-phenylpropan-2-ol hydrochloride], 53.7%; in that of `CNC[C@@H](O)[C@](C)(c1ccccc1)n1ccc2ccccc21` [Example 191, (2R,3S)-3-(1H-indol-1-yl)-1-(methylamino)-3-phenylbutan-2-ol hydrochloride], 63.9%.
As to `CNC[C@@H](O)[C@H](c1ccccc1)N1C(=O)C(C)(C)c2cc(Br)ccc21` [Example 194, 5-bromo-1-[(1S,2R)-2-hydroxy-3-(methylamino)-1-phenylpropyl]-3,3-dimethyl-1,3-dihydro-2H-indol-2-one hydrochloride], the inhibition at 1 µM worked out at 79%.
On the same count and under the same terms, the same measure for `CNC[C@@H](O)[C@H](c1ccccc1)N1C(=O)C(C)(C)c2ccc(F)cc21` [Example 195, 6-fluoro-1-[(1S,2R)-2-hydroxy-3-(methylamino)-1-phenylpropyl]-3,3-dimethyl-1,3-dihydro-2H-indol-2-one hydrochloride]: 91%; for `CNC[C@@H](O)[C@H](c1ccccc1)N1C(=O)C(C)(C)c2c(F)cccc21` [Example 196, 4-fluoro-1-[(1S,2R)-2-hydroxy-3-(methylamino)-1-phenylpropyl]-3,3-dimethyl-1,3-dihydro-2H-indol-2-one hydrochloride]: 94.6%.
